Measured values published in publication PMC7269367 (Chemical research in toxicology, 2019).

Legend:
[1] = test system: Dhcr7 / cholesterol biosynthesis in Neuro2a cells; assay: Cellular sterol levels in Neuro2a cells after exposure; format: cell-based, Mouse; details: 100 nM; for cellular accumulation of 7-DHC, less than the accumulation caused by C10-BAC: 72 hours; for cellular desmosterol and cholesterol: 72 hour exposure, serum-free media, relative to Control
recombinant CYP4F2 = biological target: T1, recombinant CYP4F2 (Homo sapiens, UniProt P78329); assay: BAC consumption by human recombinant CYP4F2; format: in vitro ADME; details: for effective inhibitor of recombinant CYP4F2 (C16-BAC consumption): inhibitor 1 μM, C16-BAC 2 μM, 50 nM P450, 20 minutes
T1 sequence (P78329 5-520): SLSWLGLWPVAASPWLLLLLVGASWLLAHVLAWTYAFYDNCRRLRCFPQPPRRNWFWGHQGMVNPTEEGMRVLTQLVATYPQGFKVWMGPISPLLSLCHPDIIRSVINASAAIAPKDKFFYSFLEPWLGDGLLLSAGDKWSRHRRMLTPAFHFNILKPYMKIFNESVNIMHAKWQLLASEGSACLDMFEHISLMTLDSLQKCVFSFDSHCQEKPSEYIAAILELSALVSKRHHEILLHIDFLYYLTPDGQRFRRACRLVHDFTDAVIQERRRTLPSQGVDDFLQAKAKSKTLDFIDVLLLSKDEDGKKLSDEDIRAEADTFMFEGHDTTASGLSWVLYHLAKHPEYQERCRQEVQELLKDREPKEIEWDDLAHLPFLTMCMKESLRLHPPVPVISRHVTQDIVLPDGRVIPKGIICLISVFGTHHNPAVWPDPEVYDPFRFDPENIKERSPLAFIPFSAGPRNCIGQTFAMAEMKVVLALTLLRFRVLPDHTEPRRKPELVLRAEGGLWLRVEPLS

[2] = Time-courses of C10-BAC depletion and metabolite formation in HLM; details: HLM 0.2 mg/mL
[3] = Metabolic stability of BACs in HLM; format: in vitro ADME, human; details: BAC 2 μM incubated separately, HLM 1 mg/mL, NADPH-dependent consumption
recombinant CYP4F12 = biological target: T2, recombinant CYP4F12 (Homo sapiens, UniProt Q9HCS2); assay: BAC consumption by human recombinant CYP4F12; format: in vitro ADME; details: for substrate consumed by recombinant CYP4F12: 50 nM P450, 30-minute incubation, NADPH
T2 sequence (Q9HCS2 1-524): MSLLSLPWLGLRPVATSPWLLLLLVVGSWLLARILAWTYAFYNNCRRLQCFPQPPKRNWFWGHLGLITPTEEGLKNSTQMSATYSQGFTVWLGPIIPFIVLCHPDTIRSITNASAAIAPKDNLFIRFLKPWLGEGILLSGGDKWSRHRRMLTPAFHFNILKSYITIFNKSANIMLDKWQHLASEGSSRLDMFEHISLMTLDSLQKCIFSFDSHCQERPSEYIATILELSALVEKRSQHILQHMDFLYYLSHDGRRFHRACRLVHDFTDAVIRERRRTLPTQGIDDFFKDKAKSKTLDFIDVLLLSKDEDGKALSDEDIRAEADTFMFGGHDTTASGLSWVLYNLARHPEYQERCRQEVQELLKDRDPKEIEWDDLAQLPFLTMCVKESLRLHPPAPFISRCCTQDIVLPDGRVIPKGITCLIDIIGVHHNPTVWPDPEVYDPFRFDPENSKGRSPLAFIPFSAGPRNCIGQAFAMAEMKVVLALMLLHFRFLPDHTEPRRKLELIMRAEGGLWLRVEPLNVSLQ

recombinant CYP2D6 = recombinant CYP2D6 (Homo sapiens, UniProt P10635); assay: BAC consumption by human recombinant CYP2D6; format: in vitro ADME; details: 2 μM substrate, 50 nM P450, 30-minute incubation, NADPH
Chain of recombinant CYP2D6 (P10635 whole entry): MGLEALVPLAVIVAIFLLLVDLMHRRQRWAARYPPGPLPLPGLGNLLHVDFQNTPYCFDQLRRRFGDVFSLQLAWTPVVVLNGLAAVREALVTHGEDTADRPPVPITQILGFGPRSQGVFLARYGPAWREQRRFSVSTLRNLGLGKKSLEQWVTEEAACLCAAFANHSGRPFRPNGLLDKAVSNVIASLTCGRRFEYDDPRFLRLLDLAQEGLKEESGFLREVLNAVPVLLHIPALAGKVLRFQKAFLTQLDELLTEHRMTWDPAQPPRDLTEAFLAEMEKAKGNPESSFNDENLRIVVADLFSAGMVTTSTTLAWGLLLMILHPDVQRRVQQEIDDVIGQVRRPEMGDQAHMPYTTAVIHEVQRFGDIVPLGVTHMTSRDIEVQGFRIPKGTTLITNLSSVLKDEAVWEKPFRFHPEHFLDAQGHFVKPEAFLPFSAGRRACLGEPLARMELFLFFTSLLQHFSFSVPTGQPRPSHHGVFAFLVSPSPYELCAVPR

recombinant CYP2A6 = biological target: T3, recombinant CYP2A6 (Homo sapiens, UniProt P11509); assay: BAC consumption by human recombinant CYP2A6; format: in vitro ADME; details: 2 μM substrate, 50 nM P450, 30-minute incubation, NADPH
T3 sequence (P11509 1-494): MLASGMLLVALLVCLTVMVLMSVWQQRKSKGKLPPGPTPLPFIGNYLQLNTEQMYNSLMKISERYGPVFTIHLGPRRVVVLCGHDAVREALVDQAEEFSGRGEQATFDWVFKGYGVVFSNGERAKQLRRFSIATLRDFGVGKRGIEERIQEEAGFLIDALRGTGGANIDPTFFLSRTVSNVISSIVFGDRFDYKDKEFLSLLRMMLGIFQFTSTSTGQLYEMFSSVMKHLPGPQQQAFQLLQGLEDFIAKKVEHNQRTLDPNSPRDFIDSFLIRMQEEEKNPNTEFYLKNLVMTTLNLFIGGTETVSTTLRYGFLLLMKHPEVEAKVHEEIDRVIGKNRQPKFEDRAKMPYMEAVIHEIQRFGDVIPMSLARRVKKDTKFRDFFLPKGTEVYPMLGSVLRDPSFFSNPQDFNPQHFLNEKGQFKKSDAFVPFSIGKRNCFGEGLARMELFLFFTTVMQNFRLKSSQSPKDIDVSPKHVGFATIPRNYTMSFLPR

[4] = Kinetic characterization of C10-BAC hydroxylation in HLM; format: in vitro ADME, human; details: HLM 0.04 mg/mL, NADPH, 0.1 to 128 μM C10-BAC, initial rates
recombinant CYP3A4 = recombinant CYP3A4 (Homo sapiens, UniProt P08684); assay: BAC consumption by human recombinant CYP3A4; format: in vitro ADME; details: 2 μM substrate, 50 nM P450, 30-minute incubation, NADPH
Chain of recombinant CYP3A4 (P08684 whole entry): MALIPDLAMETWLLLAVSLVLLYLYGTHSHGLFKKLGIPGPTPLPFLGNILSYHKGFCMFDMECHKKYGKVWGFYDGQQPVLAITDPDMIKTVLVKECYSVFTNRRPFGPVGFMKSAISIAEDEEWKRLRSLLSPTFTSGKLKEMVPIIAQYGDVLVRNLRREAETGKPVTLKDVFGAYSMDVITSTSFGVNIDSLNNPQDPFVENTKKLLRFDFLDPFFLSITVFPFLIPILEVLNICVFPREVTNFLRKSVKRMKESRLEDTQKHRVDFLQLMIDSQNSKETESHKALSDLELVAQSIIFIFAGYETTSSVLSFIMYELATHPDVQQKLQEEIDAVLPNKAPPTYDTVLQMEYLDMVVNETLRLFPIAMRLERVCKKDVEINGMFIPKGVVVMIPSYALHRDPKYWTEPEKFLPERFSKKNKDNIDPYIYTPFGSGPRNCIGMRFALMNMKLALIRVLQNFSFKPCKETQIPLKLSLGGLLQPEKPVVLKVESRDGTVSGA

[5] = test system: 3β-hydroxysterol-Δ^7-reductase (DHCR7); details: at nM concentrations; cited from earlier work

## C[N+](C)(CCCCCCCCCCO)Cc1ccccc1.[Cl-] [ω-hydroxy-C10-BAC]
[1]
  cellular accumulation of 7-DHC, less than the accumulation caused by C10-BAC: over 2 orders of magnitude

## CCCCc1ccc(N=CNO)c(C)c1 [HET0016]
Recombinant CYP4F2
  effective inhibitor of recombinant CYP4F2 (C16-BAC consumption): essentially complete inhibition
[2]; inhibitor 1 μM, C10-BAC 680 nM
  effect on (ω−1)-ketone formation from C10-BAC in HLM: suppressing
  effect on C10-BAC (ω−1)-hydroxylation / oxidation at the (ω−1)-position in HLM: promoted
  effect on C10-BAC ω-hydroxylation (ω-hydroxy metabolite formation) in HLM: nearly complete inhibition
  effect on ω-carboxylic acid formation from C10-BAC in HLM: nearly complete inhibition

## Cl.Cl.Clc1ccccc1CNCC1CCC(CNCc2ccccc2Cl)CC1 (stereo not shown) [AY9944, reference compound]
[1]
  cellular desmosterol and cholesterol: significant decreased level

## CCCCCCCCCCCCCC[N+](C)(C)Cc1ccccc1.[Cl-] [C14-BAC]
[3]
  apparent half-life in HLM: ~6 min

## C=C[C@H]1C[N@@]2CC[C@H]1C[C@@H]2[C@@H](O)c1ccnc2ccc(OC)cc12 [quinidine]
Recombinant CYP4F2
  effective inhibitor of recombinant CYP4F2 (C16-BAC consumption): not
Recombinant CYP4F12; inhibitor 1 μM alone, C16-BAC 2 μM, 50 nM P450, 20 minutes
  inhibition of C16-BAC consumption by recombinant CYP4F12: did not inhibit
[2]; inhibitor 1 μM, C10-BAC 680 nM
  effect on C10-BAC (ω−1)-hydroxylation / oxidation at the (ω−1)-position in HLM: primarily inhibitory
  effect on C10-BAC ω-hydroxylation (ω-hydroxy metabolite formation) in HLM: did not inhibit
  effect on ω-carboxylic acid formation from C10-BAC in HLM: partial suppression

## CCCCCCCCCCCCCCCC[N+](C)(C)Cc1ccccc1.[Cl-] [C16-BAC]
Recombinant CYP4F2; 2 μM substrate, 50 nM P450, 30-minute incubation, NADPH
  substrate consumed by recombinant CYP4F2: 45%
Recombinant CYP4F12; 2 μM substrate
  substrate consumed by recombinant CYP4F12: 88%
Recombinant CYP4F12; 2 μM substrate, 50 nM P450, 20 minute incubation, HET0016 1 μM, mean ± SD, n = 3
  C16-BAC percent remaining with recombinant CYP4F12, HET0016 alone: 49% ± 6%
Recombinant CYP4F12; 2 μM substrate, 50 nM P450, 20 minute incubation, no inhibitor, mean ± SD, n = 3
  C16-BAC percent remaining with recombinant CYP4F12, no inhibitor: 26% ± 4%
Recombinant CYP2D6
  substrate consumed by recombinant CYP2D6: 77%
Recombinant CYP2A6
  substrate consumed by recombinant CYP2A6: 5%
[3]
  apparent half-life in HLM: ~15 min

## CCCCCCCCCC[N+](C)(C)Cc1ccccc1.[Cl-] [C10-BAC]
[4]
  Vmax of (ω−1)-hydroxylation: 126 pmol/min/mg
  Vmax of ω-hydroxylation: 380 pmol/min/mg
[4]; read-out: Km of (ω−1)-hydroxylation
  Km: 0.13 µM
Recombinant CYP3A4
  substrate consumed by recombinant CYP3A4: 15%
Recombinant CYP4F12; 2 μM substrate
  substrate consumed by recombinant CYP4F12: essentially all
Recombinant CYP2D6
  substrate consumed by recombinant CYP2D6: essentially all
[5]
  inhibition of DHCR7 in the cholesterol biosynthesis pathway: inhibit
[3]
  apparent half-life in HLM: approximately 1 minutes
[1]
  cellular desmosterol and cholesterol: significant decreased level
[2]; 680 nM initial substrate, NADPH, no inhibitor
  C10-BAC concentration remaining at the 4-minute time point: 341 ± 7 nM

## CC(O)CCCCCCCC[N+](C)(C)Cc1ccccc1.[Cl-] (stereo not shown) [(ω−1)-hydroxy-C10-BAC]
[1]
  cellular accumulation of 7-DHC, less than the accumulation caused by C10-BAC: over 2 orders of magnitude
